Patent publication US8729226B2, “Cancer therapy method” (Centro de Ingenieria Genetica y Biotecnologia, priority 2010, dated 2014)
Blank lines part the entries; values can stand above or below the compound they belong to.

Experiments:
[1] = system: HT-29 tumor cells; assay: combination L552 peptide and cytostatic, MTT, CalcuSyn, HT-29; type: cell-based, human
Description: (§1) For this assay, HT-29 and H-125 tumor cells were seeded in 96-well plates (Costar) at a density of 1×10^4 cells mL in RPMI 1640 (Gibco) supplemented with fetal calf serum (Gibco). After 24 hours, the peptide was added to the culture medium in a dose range between 9 μM and 300 μM and the cytostatic drug was added in a range dose of 1:10 serial dilution over and below the reported IC50 for each cell line. […] The effect of concomitant treatment cytostatic-peptide was analyzed by the CalcuSyn computer software to study drug combinations (Ting-Chao Chou, 2006, Pharmacological Reviews, 58: 621-681). […] The combination 5-FU+L552 peptide allows a 20 times reduction (RI) of cytostatic in the HT-29 cell line. For the combination cisplatin+L552 peptide, the cytostatic reduction is 5 times in the H-125 cell line. […] This can reduce the adverse effects associated with chemotherapy.

[2] = system: HT-29 cell line transiently transfected with GFP-N-COMMD1; assay: chemosensitivity to 5-FU of transfected HT-29 cells, MTT; type: cell-based, human; conditions: cells expressing GFP-NCOMMD1 compared to GFP or GFP-COMMD1, 48 hours
Description: (A) The HT-29 cell line transiently transfected with constructs described above were seeded in 96-well plates (Costar) at density of 1×10^4 cells/mL in RPMI 1640 (Gibco) supplemented with fetal calf serum (Gibco) After 24 hours, the cytostatic 5-FU was added to the culture medium in a dose range between 0.025 μM and 2500 μM, in 1:10 serial dilutions. […] Finally, the plate reading at an absorbance of 492 nm was carried out. Each point was performed in duplicate, and experiments were carried out at least twice independently. The IC50 values were obtained from the respective curves of cell proliferation.

[3] = system: H-125 tumor cells; assay: combination L552 peptide and cytostatic, MTT, CalcuSyn, H-125; type: cell-based, human
Description: as §1

[4] = system: COMMD1 nuclear localization in SW948 cells; assay: COMMD1 sub-cellular (nuclear) localization in SW948 cells, Western blot; type: cell-based, human; conditions: peptide 50 μM, 5 hours
Description: (B) SW948 cells (3×10^6 cells) were incubated for 5 hours at 37° C. and 5% CO2 with the L2 peptide (50 μM). Subsequently, cytosolic and nuclear proteins were obtained as reported (Vancurova et al., 2001, Journal of Biological Chemistry, 276: 19746-19752). The COMMD1 detection was performed by Western blot using an anti-COMMD1 antibody. […] Beta Actin was used as a control for the cytoplasmic fraction and the human ribonucleoprotein (hnRNP) as a control of the nuclear fraction.
In this experiment the objective was to identify a peptide with a higher capacity to accumulate COMMD1 in the nucleus of the cells. SW948 cells (3×10^6 cells) were incubated for 5 hours at 37° C. and 5% CO2 with L2, L551, L552, L553 and L554 peptides (50 μM). Subsequently, isolation of cytosolic and nuclear proteins was performed as described in Example 2. COMMD1 detection was performed by Western blot using an anti-COMMD1 antibody. […] Also, the interaction is related to the facilitation of nuclear accumulation of COMMD1.

[5] = target: T1, COMMD1 protein (Homo sapiens, UniProt Q8N668); assay: pulldown with biotinylated L2 peptide, SW948 total protein extract, Western blot; type: binding; set-up: Total extract protein from SW948 (cell line from human colon carcinoma); endogenous in cells; host or cells: SW948; conditions: compared to total protein extract
Description: (A) The synthetic L2 peptide (SEQ ID No. 1), synthesized using a solid phase procedure was biotinylated and used as “bait” attached to a streptavidin sepharose resin. Total extract protein from SW948 (cell line from human colon carcinoma) was used as a “prey”. These experiments are known as “pulldown”. The total extract protein was obtained from […] cells using extraction buffer (Triton X-100 0.5% 25 mM HEPES, pH 7.5, 100 mM NaCl, 1 mM EDTA, 10% glycerol, 1 mM dithiothreitol (DTT), and a protease inhibitor). The biotinylated peptide (300 μg) was incubated with 50 μL of streptavidin sepharose resin (GE Healthcare), for 1 hour, and washed with phosphate buffered saline (PBS 1×) plus 1 mM DTT were done. Then, 500 μL of total proteins were incubated with 50 μL resin containing the biotinylated peptide, at room temperature for 5 hours. Subsequently, the resin is washed extensively with PBS 1× and 1 mM DTT. Proteins remaining attached to the resin are those that interact with the peptide, and are suspended in 25 μL of electrophoresis buffer (62.5 mM Tris HCl, pH 6.9, 0.1 M DTT, 20% sodium dodecyl-sulphate (SDS), 10% glycerol and 0.01% bromophenol blue). To detect the protein of interest a polyacrylamide gel electrophoresis (7.5%) was performed, followed by immunodetection by Western blot. To detect the COMMD1 protein, a monoclonal antibody against COMMD1 protein (Sigma, clone 2A12) was used. […]
Target sequence in this assay (Q8N668 whole entry): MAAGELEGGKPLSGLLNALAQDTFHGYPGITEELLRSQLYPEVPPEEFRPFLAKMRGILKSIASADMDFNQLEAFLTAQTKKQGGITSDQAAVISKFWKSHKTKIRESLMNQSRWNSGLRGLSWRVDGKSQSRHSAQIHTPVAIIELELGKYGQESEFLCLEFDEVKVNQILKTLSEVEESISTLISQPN

[6] = target: T1, COMMD1 protein; assay: two-hybrid yeast system, L2 peptide-protein interaction; type: binding; set-up: expressed in transfected cells; host or cells: Saccharomyces cerevisiae Y187 (mated with AH109 carrying pGBKL2-1); conditions: COMMD1 deletion clones
Description: To identify anti-tumor L2 peptide-protein interactions the two-hybrid yeast system was used. For cloning the sequences corresponding to the peptide the oligonucleotides were designed as follows:
corresponding to the L2 peptide sequence: […] For cloning these sequences in the pGBKT7 NcoI-BamHI vector, sequences complementary to these sites were added at the ends of the oligonucleotides. The pGBKL2-1 recombinant plasmid, which carries the L2 peptide sequence was verified by restriction analysis and sequencing. The plasmid was transformed into the AH109 yeast strain by the lithium acetate method and grown in SD-Trp medium. It was verified that it could not be self-activated when grown on SD-Trp-His plates. For the screening of the interactions, a human liver cDNA library transformed into the Y187 strain was used. For the diploid formation and the selection of interactions, 5×10^8 AH109 cells containing the pGBKL2-1 plasmid were grown with 5×10^8 Y187 cells containing the human liver DNA library, for 4 hours, on solid medium YPDA at 30° C. Ten ml of sterile water were added on the surface of the YPDA plates, and the cells were suspended carefully with spatula and transferred to 15 plates of SD-Trp-Leu-His-Ade minimal media and grown at 30° C. for 7 days. The 74 resulting colonies were transferred to liquid SD-Trp-Leu in 96 deep well plates. […]
Target sequence in this assay (Q8N668 6-190): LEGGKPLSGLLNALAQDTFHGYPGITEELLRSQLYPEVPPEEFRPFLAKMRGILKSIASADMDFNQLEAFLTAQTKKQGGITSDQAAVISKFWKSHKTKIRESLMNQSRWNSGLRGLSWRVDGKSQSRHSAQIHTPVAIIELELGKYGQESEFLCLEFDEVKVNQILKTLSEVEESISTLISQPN

- IC50 of 5-FU [2]: reduction of the IC50
Compound: O=c1[nH]cc(F)c(=O)[nH]1 [Peptide 5-FU, 5-fluorouracil]
- Drug 5-FU ([1]; HT-29, at Af 89%): 5000 µM
- RI (5-FU) ([1]; HT-29, reduction index of the drug in combination with L552): 20

Compound: N.N.[Cl][Pt][Cl] [cisplatin]
- Drug cisplatin ([3]; H-125, at Af 94%): 273 µM
- RI (cisplatin) ([3]; H-125, reduction index of the drug in combination with L552): 5

- COMMD1 pulled down by the peptide [5]: concentrates the COMMD1 protein
Compound: HARIKPTFRRLKWKYKGKFW [Peptide L2, Peptide previously described in application WO 07/095 867]
- COMMD1 nuclear localization / accumulation [4]: COMMD1 nuclear localization
- interaction with COMMD1 (region responsible) [6]: specifically binds the region between amino acids 110-190
